Experimental data from patent US9464064B2, “HCV helicase inhibitors and methods of use thereof” (University of Kansas, priority 2011, dated 2016).

Biological target: T1, HCV NS3 helicase NS3h_1b(con1) (Hepatitis C virus genotype 1b, UniProt Q9WMX2)
T1 construct: truncated C-terminally His-tagged NS3 proteins lacking the N-terminal protease, called NS3h; His-tag (C); made in house
Assay: MBHA screen of NCI mechanistic set library at 20 μM (percent inhibition, compound interference)
Type: biochemical
Details: compounds at 20 μM; for Inh. (%) (Inhibition): calculated from Equation 1
Experimental: All molecular beacon-based helicase assays (MBHAs) were performed according to known methods (Belon & Frick (2008) supra; Belon & Frick (2009) supra). […] In each flat, black 384-well plate, 56 compounds were tested, in triplicate, along with three negative controls (DMSO only), three positive controls (500 nM dT20), and two wells with no enzyme. Fluorescence was read before ATP (F0) addition and 30 minutes after ATP was added to 1 mM (F30) using a Tecan Infinite M200 fluorescence microplate reader with excitation and emission wavelengths set to 643 and 670 nm, respectively. Percent inhibition was calculated with equation 1, and compound interference in the MBHA was calculated with equation 2.
In Equations 1 and 2, Fc0 is the fluorescence of the reactions containing the test compound before adding ATP, Fc30 is the fluorescence of the test compound reaction 30 minutes after adding ATP. F(−)0 is the average of three DMSO-only negative control reactions before adding ATP and F(−)30 is the average of three DMSO-only reactions 30 minutes after adding ATP.
To identify HCV helicase inhibitors, the MBHA was first used to screen the National Cancer Institute Developmental Therapeutics Program's mechanistic set library. In total, 827 compounds (at 20 μM) were screened using a MBHA with a DNA substrate (Table 1). Compounds were ranked by their ability to inhibit HCV helicase-catalyzed DNA unwinding as calculated from Equation 1.
Compound interference in the MBHA was evaluated by comparing the fluorescence of reactions containing each compound to the fluorescence of DMSO-only negative controls before ATP was added.

[1] = MBHA with DNA substrate, assay interference calculated with Equation 2
[2] = assay interference calculated with Equation 2 (fluorescence vs DMSO-only controls before ATP)

T1 sequence (Q9WMX2 1192-1657): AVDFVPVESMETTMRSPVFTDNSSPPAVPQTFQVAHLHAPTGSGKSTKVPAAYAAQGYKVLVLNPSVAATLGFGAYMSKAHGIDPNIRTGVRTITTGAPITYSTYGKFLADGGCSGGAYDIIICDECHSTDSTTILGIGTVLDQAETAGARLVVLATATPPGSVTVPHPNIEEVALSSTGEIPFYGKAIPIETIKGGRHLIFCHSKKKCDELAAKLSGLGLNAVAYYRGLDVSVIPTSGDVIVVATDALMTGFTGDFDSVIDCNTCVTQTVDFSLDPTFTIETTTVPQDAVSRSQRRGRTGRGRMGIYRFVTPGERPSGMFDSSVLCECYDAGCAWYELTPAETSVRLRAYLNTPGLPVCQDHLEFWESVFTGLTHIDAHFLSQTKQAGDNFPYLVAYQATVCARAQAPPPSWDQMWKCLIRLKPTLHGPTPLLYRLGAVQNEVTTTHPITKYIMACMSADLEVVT

| SMILES | Int.* (Ratio) (Interference) [1] | Inh. (%) (Inhibition) (MBHA with DNA substrate) | Inh. (%) (Inhibition) (MBHA with a DNA substrate) | Int.* (Ratio) (Interference) [2] |
| --- | --- | --- | --- | --- |
| O=S(=O)(O)c1cc(N=Nc2cc(S(=O)(=O)O)c3ccccc3c2O)ccc1/C=C/c1ccc(N=Nc2cc(S(=O)(=O)O)c3ccccc3c2O)cc1S(=O)(=O)O.[Na+] [Compound 34931] | 0.90 | 89.2 |  |  |
| O=C(C[n+]1ccc2ccccc2c1)c1ccc2ccc3ccccc3c2c1 [Compound 35489] | 1.04 | 18.7 |  |  |
| Nc1nc(SCCc2ccccc2)c2[nH]cnc2n1 [Compound 35866] | 0.93 | 15.3 |  |  |
| O=S1(=O)CCN(c2ccccc2CC(c2c[nH]c3ccccc23)c2c[nH]c3ccccc23)CC1 [Compound 35949] | 1.25 | −8.9 |  |  |
| C=C1C(=O)OC2CC1C(OC(C)=O)C/C(C)=C/CC/C(C)=C\CCC2(C)O (stereo not shown) [Compound 36437] | 0.99 | −17.3 |  |  |
| C[C@@H]1C[C@H]2OC(=O)[C@@]3(C)CCC[C@@](C)([C@@H]23)[C@@]1(O)CCc1ccoc1 [Compound 36693] | 0.76 | −8.8 |  |  |
| Nc1nc(SCc2ccccc2Cl)c2[nH]cnc2n1 [Compound 36826] | 0.98 | 3.4 |  |  |
| COc1nc(N)nc2nc[nH]c12 [Compound 37364] | 1.01 | 16.5 |  |  |
| Clc1ccc(C(c2ccccc2Cl)C(Cl)Cl)cc1 (stereo not shown) [Compound 38721] | 0.93 | 0.3 |  |  |
| O=C1C(CN2CCCCC2)CCCC1CN1CCCCC1 (stereo not shown) [Compound 39202] | 0.91 | 4.5 |  |  |
| Cc1nc(Cl)c(C)c(Cl)n1 [Compound 40212] | 0.95 | 1.1 |  |  |
| O=C1C(Cl)=C(N2CCN(C3=C(Cl)C(=O)c4ccccc4C3=O)CC2)C(=O)c2ccccc21 [Compound 40341] |  |  | −6.4 | 1.09 |
| Nc1nc(SCc2ccccc2Cl)c2ncn(C3OC(CO)C(O)C3O)c2n1 (stereo not shown) [Compound 40666] |  |  | −2.9 | 1.09 |
| COc1ccc(/C=C/c2cc(O)cc(O[C@@H]3O[C@H](CO)[C@@H](O)[C@H](O)[C@H]3O)c2)cc1O [Compound 43321] |  |  | −28.3 | 1.07 |
| CCN(CC)c1ccc2cc3ccc(=[N+](CC)CC)cc-3oc2c1.[Cl-] [Compound 44690] | 0.66 | 61.5 |  |  |
| COC1=C(N)C(=O)c2nc(-c3nc(C(=O)O)c(C)c(-c4ccc(OC)c(OC)c4O)c3N)ccc2C1=O [Compound 45383] |  |  | −19.1 | 1.05 |
| CN(C)/N=N/c1nc[nH]c1C(N)=O [Compound 45388] | 0.95 | 17.5 |  |  |
| Oc1ccc2ccccc2c1N=Nc1cccc2ccccc12 [Compound 45575] | 0.97 | 18.4 |  |  |
| CN1CCN(CCCN2c3ccccc3Sc3ccc(C(F)(F)F)cc32)CC1 [Compound 46061] | 0.93 | 13.2 |  |  |
| CC(=O)O[C@]1(C(C)=O)CC[C@H]2[C@@H]3C[C@H](C)C4=CC(=O)C=C[C@]4(C)[C@@]3(F)[C@@H](O)C[C@@]21C [Compound 47438] | 1.18 | −12.2 |  |  |
